# Source: paper PMC12153265 (mBio, 2025)
# Key:
# SARS-CoV-2 [1] = assay: SARS-CoV-2 replication in Caco-2 cells, viral titer in the medium by plaque assay; format: cell-based; settings: for reduction of viral yield: MOI = 0.1, 72 h; for reduction of viral yield / antiviral activity in SARS-CoV-2 infection compared with compound 1: plaque assay; for IC50 / antiviral activity in SARS-CoV-2 infection compared with compound 1: Caco-2, MOI = 0.1, 72 h; for IC50: viral titer in medium by plaque assay, read-out: IC50, inhibition of SARS-CoV-2 replication
# Procedure: (§1) NHBE (1.5 × 10^5 cells), Calu-3 (5 × 10^5 cells), or Caco-2 cells (2 × 10^5 cells) were seeded in one well of 12-well plates. Cells were washed with FBS-free medium before viral infection. SARS-CoV-2 was diluted in 250 µL (per well) medium and added to the above cells. Viral infection was incubated on a rocker for 45 min at 37°C. Cells were washed with fresh medium, and medium containing 10% FBS was added.
# (§2) Vero E6-hACE2 cells were seeded in 6- or 12-well plates. When cell confluence reached 100%, cells were washed with FBS-free medium and infected with medium containing serially diluted SARS-CoV-2. After infection, the medium was removed, and overlay medium containing FBS-free 1× DMEM and 1% low-melting point agarose was added. At 72 h post-infection, cells were fixed with 4% paraformaldehyde (PFA) overnight and stained with 0.2% crystal violet. Plaques were counted on a lightbox.
# (§3) Caco-2, NHBE, Calu-3, and Vero E6-hACE2 cells were pre-treated with compound 1, 6, or 10 and infected with SARS-CoV-2 (MOI = 0.1 for Caco-2, NHBE, and Calu-3; MOI = 0.001 for Vero E6-hACE2). Compounds were added daily during viral infection until the end of the experiments (72 h for Caco-2 and Calu-3, 48 h for NHBE, and 24 h for Vero E6-hACE2), with DMSO used as a control. Viral titer in the medium was determined by plaque assay. Cytotoxicity assay was performed for uninfected Caco-2, NHBE, Calu-3, and Vero E6-hACE2 cells with the same treatment schedule as that of viral replication assay. Cytotoxicity was determined with an XTT assay kit (Roche), according to the manufacturer’s instructions. The percentage of inhibition was normalized to DMSO control. IC50, IC90, and CC50 were calculated with GraphPad Prism software.
# [2] = Cytotoxicity, XTT assay, uninfected Caco-2 cells; format: cell-based, human; settings: human, uninfected Caco-2 cells, uninfected Caco-2, XTT assay, read-out: CC50, cell viability
# Procedure: as §3
# SARS-CoV-2 [3] = assay: SARS-CoV-2 replication in NHBE cells, viral titer in the medium by plaque assay; format: cell-based; settings: Severe acute respiratory syndrome coronavirus 2, NHBE, 48 h
# Procedure: as §1, §2
# Caco-2, NHBE, Calu-3, and Vero E6-hACE2 cells were pre-treated with compound 1, 6, or 10 and infected with SARS-CoV-2 (MOI = 0.1 for Caco-2, NHBE, and Calu-3; MOI = 0.001 for Vero E6-hACE2). […] Viral titer in the medium was determined by plaque assay. […] Cytotoxicity was determined with an XTT assay kit (Roche), according to the manufacturer’s instructions. […] IC50, IC90, and CC50 were calculated with GraphPad Prism software.
# [4] = Cytotoxicity, XTT assay, uninfected NHBE cells; format: cell-based; settings: human, read-out: CC50, cell viability
# Procedure: as §3
# CTPS1 [5] = molecular target: CTPS1 (Homo sapiens, UniProt P17812); assay: CTPS1 enzymatic activity assay (UTP to CTP conversion, mass spectrometry); format: biochemical; settings: read-out: inhibition of CTP synthesis compared with DMSO
# SARS-CoV-2 [6] = assay: SARS-CoV-2 RNA abundance in infected Caco-2 cells, real-time PCR; format: cell-based; settings: MOI = 0.1, 72 h
# SARS-CoV-2 [7] = assay: SARS-CoV-2 replication (plaque assay) and cytotoxicity (XTT) in Calu-3 cells; format: cell-based; settings: Calu-3, MOI = 0.1, 72 h
# Procedure: as §3
# IFN-β promoter = assay: IFN-β induction by Sendai virus, luciferase reporter assay in 293T cells; format: cell-based, human; settings: SeV infection; for IFN induction compared with compound 1, reporter assay: 293T cells
# Procedure: (§4) HEK293T cells in 24-well plates (~50% cell density) were transfected with a reporter plasmid cocktail containing 50 ng luciferase reporter plasmid (ISRE-luc, IFN-β-luc, or NF-κB), 5 ng TK-renilla luciferase reporter (control vector), and the indicated expression plasmids by calcium phosphate precipitation. Whole cell lysates (WCLs) were prepared at 24–30 h post-transfection and used for dual luciferase assay according to the manufacturer’s instruction (Promega).
# NF-κB = NF-κB activation by Sendai virus, luciferase reporter assay in 293T cells; format: cell-based, human; settings: SeV infection
# Procedure: as §4
# IFNB1, ISG56, CCL5, Mx1 = assay: Antiviral gene expression in SARS-CoV-2-infected Caco-2 cells, real-time PCR; format: cell-based, human; settings: Caco-2, 2 µM and 6 µM, MOI = 0.1, 48 h
# IFNB1 = assay: Antiviral gene expression in 293T cells infected with Sendai virus, real-time PCR
# CTP synthesis = assay: Intracellular CTP/CDP synthesis, [amide-15N]glutamine tracing and mass spectrometry
# CTPS1 [8] = molecular target: T1, CTPS1 (Homo sapiens, UniProt P17812); assay: Covalent labeling of FLAG-CTPS1 in 293T cells, in-gel fluorescence imaging; format: binding; settings: FLAG-CTPS1 expressing 293T cells, 2 h
# T1 construct: expressed in transfected cells; host or cells: 293T cells expressing FLAG-CTPS1
# T1 sequence (P17812 1-591): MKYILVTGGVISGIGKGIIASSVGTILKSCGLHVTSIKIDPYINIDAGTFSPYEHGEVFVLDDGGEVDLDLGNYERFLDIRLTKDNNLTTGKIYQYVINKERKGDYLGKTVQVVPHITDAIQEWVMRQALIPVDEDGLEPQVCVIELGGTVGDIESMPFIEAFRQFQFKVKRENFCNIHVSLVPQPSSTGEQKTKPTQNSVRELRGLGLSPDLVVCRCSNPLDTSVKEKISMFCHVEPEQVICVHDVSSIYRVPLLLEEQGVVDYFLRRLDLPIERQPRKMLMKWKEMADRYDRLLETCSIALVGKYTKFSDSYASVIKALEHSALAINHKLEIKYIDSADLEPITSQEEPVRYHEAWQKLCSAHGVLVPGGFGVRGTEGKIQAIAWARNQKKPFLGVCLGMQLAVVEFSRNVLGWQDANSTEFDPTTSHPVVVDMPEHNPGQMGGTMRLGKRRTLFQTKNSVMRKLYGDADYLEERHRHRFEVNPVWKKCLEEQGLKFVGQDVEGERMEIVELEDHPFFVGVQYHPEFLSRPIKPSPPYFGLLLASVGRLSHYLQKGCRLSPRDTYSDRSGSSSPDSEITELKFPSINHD
# Caco-2 cells = assay: Cytotoxicity, XTT assay, uninfected Caco-2 cells; format: cell-based, human; settings: uninfected Caco-2, XTT assay, 72 h; read-out: CC50, cell viability
# Procedure: as §3
# SARS-CoV-2 [9] = assay: SARS-CoV-2 infection of K18-hACE2 transgenic mice; format: in vivo, mouse; settings: 50 mg/kg daily intraperitoneal, 3 dpi
# Procedure: K18-hACE2 transgenic mice were intraperitoneally administered with compound 10 at a dose of 50 mg/kg and vehicle 1 day before infection with 1 × 10^4 PFU of SARS-CoV-2. Body weight and compound administration were monitored daily. Mice were humanely euthanized at 3 dpi, and the lung tissues were harvested for viral titration, real-time PCR, and pathological analysis.
# K18-ACE2 transgenic mice were euthanized on day 3 after SARS-CoV-2 infection. Fresh lung pieces were fixed with 10% formalin for 24 h. The post-caval lobes of the […] were sent to the histology lab in USC of the School of Pharmacy Core Facilities for processing and hematoxylin and eosin (H&E) staining. In brief, tissues were dehydrated and embedded in paraffin. Paraffin-embedded tissue blocks were sectioned with 5 µm thickness. Sections were processed by H&E staining and imaged by ZEISS Axio Scope.A1 microscope (Zeiss) and analyzed by ZEISS ZEN Blue software.
# Immunofluorescence staining was performed on the middle lobes of the […] fixed with 10% formalin. Tissues were embedded in optimal cutting temperature (OCT) compound and frozen immediately at −80°C. Subsequently, the frozen tissues were cut into 8 µm sections using a cryostat-microtome. Sections were blocked with 10% normal goat serum diluted in PBST for 1 h and incubated with primary antibodies diluted in 10% normal goat serum overnight at 4°C. After washing with PBST, sections were incubated with species-matched secondary antibodies for 30 min at room temperature. Then tissue sections were washed with PBST, mounted with VectaMount Mounting Medium (Vector Laboratories), and analyzed by a confocal microscope (Nikon).
# SARS-CoV-2 [10] = assay: SARS-CoV-2 infection of AAV-hACE2-transduced C57BL/6 J mice; settings: 35 mg/kg daily intraperitoneal, 4 dpi
smiles,measurement,setting,value
COc1cccc(NC(=O)c2cccc(NC(=O)CCl)c2)c1 [Compound 1],reduction of viral yield,"SARS-CoV-2 [1]; Caco-2, 2 µM",~ 10 fold
same,reduction of viral yield,"SARS-CoV-2 [1]; Caco-2, 6 µM",~50 fold
same,IC90,"SARS-CoV-2 [1]; Severe acute respiratory syndrome coronavirus 2, Caco-2, 72 h, read-out: IC90, inhibition of SARS-CoV-2 replication",1560 nM
same,IC50,SARS-CoV-2 [1]; Severe acute respiratory syndrome coronavirus 2,170 nM
same,CC50 at 72 h,[2],2420 nM
same,IC50,"SARS-CoV-2 [3]; read-out: IC50, inhibition of SARS-CoV-2 replication",970 nM
same,IC90,"SARS-CoV-2 [3]; read-out: IC90, inhibition of SARS-CoV-2 replication",8700 nM
same,CC50 at 48 h,[4],3750 nM
same,inhibition at 10 µM,CTPS1 [5],55 to 83%
same,"reduction of viral RNA abundance (Nsp1, N, E)","SARS-CoV-2 [6]; Caco-2, 2 µM",> 50%
same,"reduction of viral RNA abundance (Nsp1, N, E)","SARS-CoV-2 [6]; Caco-2, 6 µM",~ 75%
same,CC50 value relative to IC50 value,SARS-CoV-2 [7],IC50 values as high as their CC50 values
same,"IFN induction, luciferase reporter",IFN-β promoter; CTPS1-depleted 293T cells,failed to do so
same,"IFN induction, luciferase reporter",IFN-β promoter; control 293T cells,elevated IFN induction
same,"NF-κB activation, luciferase reporter",NF-κB,no effect
same,"expression of antiviral genes (IFNB1, ISG56, CCL5, Mx1)","IFNB1, ISG56, CCL5, Mx1",elevated
same,IFNB1 expression,IFNB1; 293T cells infected with Sendai virus,increased IFNB1 expression in a dose-dependent manner
same,expression of IFNB1 and ISG56 inhibited by Nsp8 and ORF8,"IFNB1; 293T cells transfected with Nsp8 or ORF8, SeV infection, 6 h",significantly restored
same,intracellular concentration of [amide-15N]CTP and [amide-15N]CDP,CTP synthesis; Caco-2 cells infected with SARS-CoV-2,potently diminished
same,[amide-15N]CTP and [amide-15N]CDP,CTP synthesis; Caco-2 cells stably expressing ORF8,diminished
C#CCOc1cccc(NC(=O)c2cccc(NC(=O)CCl)c2)c1 [Compound 2],covalent labeling of CTPS1,CTPS1 [8],covalently labeled CTPS1 in a dose-dependent manner
COc1ccccc1NC(=O)c1cccc(NC(=O)CCl)c1 [Compound 6],antiviral activity in SARS-CoV-2 infection compared with compound 1,SARS-CoV-2 [1],more robust antiviral activity
same,IC50,SARS-CoV-2 [1],140 nM
same,CC50,Caco-2 cells,2820 nM
same,CC50 value relative to IC50 value,SARS-CoV-2 [7],IC50 values as high as their CC50 values
same,"IFN induction compared with compound 1, reporter assay",IFN-β promoter,better effect on IFN induction than compound 1
CCCCCNC(=O)c1cccc(NC(=O)CCl)c1 [Compound 10],antiviral activity in SARS-CoV-2 infection compared with compound 1,SARS-CoV-2 [1],more robust antiviral activity
same,IC50,SARS-CoV-2 [1],110 nM
same,CC50,Caco-2 cells,6170 nM
same,CC50 value relative to IC50 value,SARS-CoV-2 [7],10 fold
same,"lung pathology, H&E staining (inflammatory infiltration)",SARS-CoV-2 [9],weak and isolated infiltration of immune cells
same,"viral N protein in the lung, immunofluorescence staining",SARS-CoV-2 [9],lower expression of viral protein
same,immune gene expression in the lung,SARS-CoV-2 [9]; vs vehicle,elevated
same,viral RNA abundance in the lung,SARS-CoV-2 [9]; vs vehicle,reduced
same,viral titer in the lung,"SARS-CoV-2 [9]; vs vehicle, plaque assay",reduced
same,"IFN induction compared with compound 1, reporter assay",IFN-β promoter,better effect on IFN induction than compound 1
same,viral titer in the lung,SARS-CoV-2 [10]; plaque assay,decreased
same,"expression of cellular antiviral genes (Ifnb1, Isg15, Isg56, Mx1) in the lung",SARS-CoV-2 [10]; real-time PCR,elevated
